Measured values reported in the supplement of paper PMC8253809.

How the values were obtained:
DIPGX29 = H3.3 K27M diffuse intrinsic pontine glioma line; assay: area under dose-response curve of % growth inhibition (log2 RLU vs DMSO / staurosporine), 1e-11 to 1e-4 M (% x log10 M); higher = more growth inhibition
Procedure, shortened: (§1)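 A 10-point threefold dilution series, mean top concentration 35 μM, was applied in triplicate to patient-derived pHGG/DIPG lines and astrocytes on 1% Geltrex-coated 384-well plates for 7 days (3 days for iAstro) at 37 °C, 5% CO2. Per-plate % activity between solvent and positive controls was calculated from log2-transformed CellTiter-Glo luminescence. Area under the curve followed from the trapezoid rule on a log-logistic fit, or on a smoothing spline when the sigmoid fit failed.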

DIPGX37 [1] = H3.3 K27M diffuse intrinsic pontine glioma line; assay: as above
Procedure, shortened: as §1

HGGX39 [2] = paediatric high-grade glioma line; assay: as above
Procedure, shortened: as §1

HGGX6 = H3.3 G34R paediatric high-grade glioma line; assay: as above
Procedure, shortened: as §1

DIPGX37 [3] = assay: EC50 (inflection of fitted growth-inhibition curve) (log10 M)
Procedure, shortened: (§2)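 A pin tool was used to add a 10-point threefold dilution series (mean top concentration 35 μM), in triplicate, to patient-derived pHGG/DIPG cell lines and astrocyte controls seeded on 384-well plates coated with 1% Geltrex. After 7 days at 37 °C and 5% CO2 (3 days for iAstro), CellTiter-Glo luminescence was log2-transformed, normalised on each plate to % activity relative to negative (solvent) and positive control wells, and pooled. EC50 and maximal response (yFin) were read from the three- or four-parameter log-logistic fit with the lowest AICc.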

DIPGX37 [4] = assay: maximal growth inhibition (yFin) relative to DMSO / staurosporine; higher = more efficacious
Procedure, shortened: as §2

HGGX39 [5] = assay: EC50 (inflection of fitted growth-inhibition curve) (log10 M)
Procedure, shortened: as §2

HGGX39 [6] = assay: maximal growth inhibition (yFin) relative to DMSO / staurosporine; higher = more efficacious
Procedure, shortened: as §2

Structure (SMILES) | area under dose-response curve (DIPGX29) | area under dose-response curve (DIPGX37 [1]) | area under dose-response curve (HGGX39 [2]) | area under dose-response curve (HGGX6) | EC50 (log10 M) (DIPGX37 [3]) | maximal growth inhibition (DIPGX37 [4]) [%] | EC50 (log10 M) (HGGX39 [5]) | maximal growth inhibition (HGGX39 [6]) [%]
CCc1ccc(CCOc2ccc(CC3SC(=O)NC3=O)cc2)nc1 (centres undefined) [PIOGLITAZONE] | 10.8 | 35.1 | 11.2 | 11.5 | – | – | – | –
c1cc(CN2CCCNCCNCCCNCC2)ccc1CN1CCCNCCNCCCNCC1 [PLERIXAFOR] | 16.6 | 32.1 | 21 | 3.55 | – | – | – | –
CCN(CC)CCOC(=O)c1ccc(N)cc1 [PROCAINE] | 3.12 | 1.95 | 1.44 | 0 | – | – | – | –
CCc1nc(N)nc(N)c1-c1ccc(Cl)cc1 [PYRIMETHAMINE] | 25 | 6.34 | 26.5 | 26.9 | – | – | – | –
Cc1nc(=O)c2cc(CN(C)c3ccc(C(=O)N[C@@H](CCC(=O)O)C(=O)O)s3)ccc2[nH]1 [RALTITREXED] | 26.5 | 26.9 | 33.4 | 16 | – | – | – | –
Nc1cc(F)ccc1NC(=O)/C=C/c1cnn(C/C=C/c2ccccc2)c1 [RGFP966] | 17.1 | 66.1 | 13.5 | 12.3 | -4.62 | 68.6 | – | –
CN(C)C(=O)c1cc2cnc(Nc3ccc(N4CCNCC4)cn3)nc2n1C1CCCC1 [RIBOCICLIB] | 13.1 | 27.7 | 32.5 | 17.1 | – | – | -5.39 | 21.8
COc1cc(OC)c2c(=O)[nH]c(-c3cc(C)c(OCCO)c(C)c3)nc2c1 [RVX-208] | 5.91 | 2.33 | 8.2 | 12 | – | – | – | –
O=C(NCC(=O)N1CCCC1)Nc1ccc2cnccc2c1 [SGC-707] | 20.9 | 11.8 | 31.4 | 11.3 | – | – | -4.55 | 58.4
COc1ccc(CCc2nc3cc(-c4c(C)noc4C)ccc3n2C[C@H](C)N2CCOCC2)cc1Cl [SGC-CBP30] | 7.64 | 13.9 | 14 | 11.7 | – | – | – | –
CO[C@H]1C[C@@H]2CC[C@@H](C)[C@@](O)(O2)C(=O)C(=O)N2CCCC[C@H]2C(=O)O[C@H]([C@H](C)C[C@@H]2CC[C@@H](O)[C@H](OC)C2)CC(=O)[C@H](C)/C=C(\C)[C@@H](O)[C@@H](OC)C(=O)[C@H](C)C[C@H](C)/C=C/C=C/C=C/1C [SIROLIMUS] | 47.3 | 59.1 | 58.5 | 62.6 | -4.68 | 67.7 | – | –
CC1=C(CC(=O)O)c2cc(F)ccc2/C1=C\c1ccc([S+](C)[O-])cc1 (centres undefined) [SULINDAC] | 3.44 | 16.9 | 4.57 | 6.88 | – | – | – | –
CC1(C)CCC(C)(C)c2cc(NC(=O)c3ccc(C(=O)O)cc3)ccc21 [TAMIBAROTENE] | 19.3 | 37.3 | 44.5 | 28.3 | – | – | – | –
CC/C(=C(\c1ccccc1)c1ccc(OCCN(C)C)cc1)c1ccccc1 [TAMOXIFEN] | 8.96 | 50.8 | 8.92 | 12.2 | -4.61 | 64.9 | – | –
COc1cccc2c1c(O)c(C(=O)N(C)c1ccc(C(F)(F)F)cc1)c(=O)n2C [TASQUINIMOD] | 0 | 4.17 | 0 | 0 | – | – | – | –
Cn1nnc2c(C(N)=O)ncn2c1=O [TEMOZOLOMIDE] | 5.13 | 15.4 | 11.3 | 15.3 | – | – | – | –
CS(=O)(=O)c1ccc([C@@H](O)[C@@H](CO)NC(=O)C(Cl)Cl)cc1 [THIAMPHENICOL] | 15.4 | 29.7 | 52 | 19.8 | – | – | -6 | 26
COc1cc2nccc(Oc3ccc(NC(=O)Nc4cc(C)on4)c(Cl)c3)c2cc1OC [TIVOZANIB] | 14.6 | 31.3 | 21.7 | 42.5 | – | – | – | –
O=c1[nH]c(=O)n([C@H]2C[C@H](O)[C@@H](CO)O2)cc1C(F)(F)F [TRIFLURIDINE] | 7.68 | 22.2 | 21 | 3.99 | – | – | – | –
COc1cc(NCc2ccc3nc(N)nc(N)c3c2C)cc(OC)c1OC [TRIMETREXATE] | 51 | 11.6 | 28.7 | 31.9 | – | – | – | –
CN1[C@@H]2CC[C@H]1C[C@@H](OC(=O)c1c[nH]c3ccccc13)C2 [TROPISETRON] | 18.7 | 33.4 | 19.5 | 10.2 | – | – | – | –
O=C(c1cncc(Br)c1)N1CCC(N2CCCC2)CC1 [UNC669] | 0 | 20.1 | 0.456 | 0 | – | – | – | –
O=C(c1cccc(Br)c1)N1CCC(N2CCCC2)CC1 [UNC926] | 8.49 | 0 | 8.09 | 8.91 | – | – | – | –
O=C(c1ccc(C(=O)N2CCC(N3CCCC3)CC2)c(Nc2ccccc2)c1)N1CCC(N2CCCC2)CC1 [UNC1215] | 4.19 | 15 | 5.82 | 6.97 | – | – | – | –
O=C(NCC(=O)N1CCCCC1)Nc1ccc2nnsc2c1 [UNC2327] | 8.94 | 3.13 | 5.31 | 10.6 | – | – | – | –
CCCS(=O)(=O)Nc1ccc(F)c(C(=O)c2c[nH]c3ncc(-c4ccc(Cl)cc4)cc23)c1F [VEMURAFENIB] | 5.27 | 2.53 | 7.32 | 8.94 | – | – | – | –
Cc1c(F)ccc(C(=O)Nc2cc([N+](=O)[O-])ccc2N2CCN(C)CC2)c1Cl [WDR5-C47] | 4.98 | 27.1 | 5.16 | 7.74 | – | – | – | –
Nc1ccn([C@H]2CC[C@@H](CO)O2)c(=O)n1 [ZALCITABINE] | 13.5 | 14.2 | 14.5 | 2.54 | – | – | – | –
